Earlier results on two molecules are cited in US20090170848A1, “THIAZOLONES FOR USE AS PI3 KINASE INHIBITORS” (SMITHKLINE BEECHAM CORPORATION, priority 2006, published 2009).

Molecules are shown by their SMILES. Like-named read-outs stand apart in the source and are kept apart here.

One series addresses CK2 protein kinase (Homo sapiens, UniProt P68400).

CK2 protein kinase, sequence (P68400 whole entry): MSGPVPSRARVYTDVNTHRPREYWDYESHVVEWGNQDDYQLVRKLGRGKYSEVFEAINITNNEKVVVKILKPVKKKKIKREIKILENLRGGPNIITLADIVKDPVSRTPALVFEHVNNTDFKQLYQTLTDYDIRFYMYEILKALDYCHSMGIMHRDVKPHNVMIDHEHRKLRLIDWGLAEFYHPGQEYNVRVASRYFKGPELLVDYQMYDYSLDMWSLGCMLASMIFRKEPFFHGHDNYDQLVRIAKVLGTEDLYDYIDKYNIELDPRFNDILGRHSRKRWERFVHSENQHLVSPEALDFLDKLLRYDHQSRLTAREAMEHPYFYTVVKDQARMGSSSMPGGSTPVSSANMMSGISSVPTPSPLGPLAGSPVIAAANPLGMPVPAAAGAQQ

As usually defined, the IC50 is the concentration that gives 50% inhibition. As for `COC[C@H]1OC(=O)c2coc3c2[C@@]1(C)C1=C(C3=O)[C@@H]2CCC(=O)[C@@]2(C)C[C@H]1OC(C)=O` [wortmannin], the IC50 in the series on Class I PI3-kinases (each of the four members of Class I PI3-kinases, read-out: IC50 values against each of the various Class I PI3-kinases) was 0.001 to 0.01 µM.
For `O=c1cc(N2CCOCC2)oc2c(-c3ccccc3)cccc12` [LY294002], the IC50 is 5 to 10 µM on CK2 protein kinase and 15 to 20 µM in the series on Class I PI3-kinases (read-out: IC50 values against each of these PI3-kinases).
